What all share (type): cell-based
In experiment [1] the target is T1, wild-type HER2 transformed Ba/F3 cells (Homo sapiens, UniProt P04626).
T1 construct: expressed in transfected cells; host or cells: Ba/F3
In words: Proliferation inhibition assay, wild-type HER2 transformed Ba/F3 cells. Conditions: MTS assay, 72 hours, Table 9 key. A digest of the protocol:
(§1)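 Transformed Ba/F3 cells are seeded, then treated with compound across 3.3 nM to 10 μM. After 72 hours, viability is measured by MTS. Sigmoidal nonlinear regression of the growth curves gives the inhibition values.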
A general note: Tetrazolium dyes change colour on reduction, which living cells bring about.

The target in experiment [2] is mutant EGFR Exon19del transformed Ba/F3 cells (Homo sapiens, UniProt P00533, cells depend on it, form not given). As to the kind of experiment: Proliferation inhibition assay, EGFR Exon19del transformed Ba/F3 cells.
Experiment [3] has as its target T2, EGFR InsASV (V769_D770insASV) transformed Ba/F3 cells (Homo sapiens, UniProt P00533, INS769ASV).
T2 construct: expressed in transfected cells; host or cells: Ba/F3
In words: Proliferation inhibition assay, EGFR InsASV transformed Ba/F3 cells. The settings on record: MTS assay, 72 hours. The method, then: (§2) Cell growth inhibition can be assessed by MTS assay or by Cell Titer Glo Luminescent Cell viability assay (Promega®). Cells are seeded and grow in culture plates before they are exposed to representative compounds of the application for various duration. The viability of the cells are then assessed. […] The growth curves can be fitted using a nonlinear regression model with sigmoidal dose response.
(§3) Cell growth inhibition was assessed by MTS assay for Ba/F3, DFCI58-229, and DFCI127c cells, or by Cell Titer Glo Luminescent Cell viability assay (Promega®) for DFC1362JC cells, 3000 Ba/F3 cells were seeded for per well in 96-well plates, and were exposed to representative compounds of the application (3.3 nM to 10 μM) for 72 hours. For DFCI58-229, DFCI127c, and DFC1362JC cells, 5000 cells were seeded per well. All experimental points included 6 to 12 wells. […] The growth curves were fitted using a nonlinear regression model with sigmoidal dose response.
(§4) Activities of representative compounds of the present application in inhibiting EGFR and HER2 were tested by MTS assay (for Ba/F3 cell, DFCI58-229 cell, and DFCI127c cells) or by CellTiter-Glot luminescent cell viability assay (for DFCI362JC cells). For assays with Ba/F3 cells, 3000 cells were seeded for per well in 96-well plates and were exposed to indicated compounds with a concentration of 3.3 to 10 μM for 72 hours. For assays with DFCI58-229 cell, DFCI127c cell, or DFCI362JC cell, 5000 cells were seeded per well in 96-well plates and were exposed to indicated compounds with a concentration of 3.3 to 10 μM for 72 hours.

For experiment [4], the target named is T3, wild-type EGFR transformed Ba/F3 cells (Homo sapiens, UniProt P00533).
T3 construct: expressed in transfected cells; host or cells: Ba/F3
As to the kind of experiment: Proliferation inhibition assay, wild-type EGFR transformed Ba/F3 cells. Conditions: MTS assay, 72 hours. Put shortly: as §1

Experiment [5] has as its target T4, EGFR InsGY transformed Ba/F3 cells (Homo sapiens, UniProt P00533, D770Y/INS769G).
T4 construct: expressed in transfected cells; host or cells: Ba/F3
In words: Western blot, EGFR phosphorylation, EGFR InsGY Ba/F3 cells. Conditions: indicated concentrations, 6 hours of treatment.
Procedure: (§6) Cells are seeded and grow in culture plates, and then treated with representative compounds of the application the following day for various duration. Cells are washed with PBS and lysed.
(§7) Cells were plated at 5×10^5 cells per well in 6-well plates and treated with representative compounds of the application the following day. After 6 hours of treatment, cells were washed with PBS and lysed with NP40 buffer (Calbiochem®) supplemented with Complete™ Mini protease inhibitor and PhosSTOP™ phosphatase inhibitors (Rocheg).
(§8) Western blot analysis was then performed on the cells. The cells were plated at 5×10^5 cells per well in 6-well plates and treated with the indicated concentrations of the compound.
(§9) After 6 hours of treatment, cells were washed with PBS and lysed with NP40 buffer (Calbiochem) supplemented with Complete Mini protease inhibitor and PhosSTOP phosphatase inhibitors (Roche).

In experiment [6] the target is T5, EGFR InsSVD transformed Ba/F3 cells (Homo sapiens, UniProt P00533, INS770SVD).
T5 construct: expressed in transfected cells; host or cells: Ba/F3
As to the kind of experiment: Western blot, EGFR phosphorylation, EGFR InsSVD Ba/F3 cells. The settings on record: indicated concentrations, 6 hours of treatment. (In general: A western blot detects proteins with antibodies after separation by electrophoresis.)
Procedure: as §6, §7, §8, §9

Experiment [7] deals with T3, wild-type EGFR transformed Ba/F3 cells. In words: Western blot, EGFR phosphorylation, wild-type EGFR Ba/F3 cells. The settings on record: indicated concentrations, 6 hours of treatment.
Procedure: as §6, §7, §8, §9
Experiment [8] deals with T6, HER2 InsWLV transformed Ba/F3 cells (Homo sapiens, UniProt P04626, INS773WL/M774V).
T6 construct: expressed in transfected cells; host or cells: Ba/F3
As to the kind of experiment: Proliferation inhibition assay, HER2 InsWLV transformed Ba/F3 cells. Conditions: MTS assay, 72 hours, Table 9 key. A digest of the protocol:
(§5)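 MTS readout after 72 h compound exposure (3.3 nM–10 μM) of Ba/F3 lines driven by EGFR/HER2 insertion mutants; 6–12 wells per point; sigmoidal dose-response nonlinear fit.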

The target of experiment [9] is T7, EGFR InsH transformed Ba/F3 cells (Homo sapiens, UniProt P00533, DUP773-773).
T7 construct: expressed in transfected cells; host or cells: Ba/F3
In words: Proliferation inhibition assay, EGFR InsH transformed Ba/F3 cells. Conditions: MTS assay, 72 hours. A digest of the protocol: as §5

For experiment [10], the target named is T8, EGFR InsHH (Y764_V765insHH) transformed Ba/F3 cells (Homo sapiens, UniProt P00533, INS764HH).
T8 construct: expressed in transfected cells; host or cells: Ba/F3
In words: Proliferation inhibition assay, EGFR InsHH transformed Ba/F3 cells. The settings on record: MTS assay, 72 hours. The method, then: as §2, §3, §4

Experiment [11] concerns the target T9, mutant EGFR T790M/L858R transformed Ba/F3 cells (Homo sapiens, UniProt P00533, L858R/T790M).
T9 construct: expressed in transfected cells; host or cells: Ba/F3
As to the kind of experiment: Proliferation inhibition assay, EGFR T790M/L858R transformed Ba/F3 cells.

Experiment [12] has as its target T10, mutant EGFR L858R transformed Ba/F3 cells (Homo sapiens, UniProt P00533, L858R).
T10 construct: expressed in transfected cells; host or cells: Ba/F3
As to the kind of experiment: Proliferation inhibition assay, EGFR L858R transformed Ba/F3 cells.

Experiment [13] has as its target T11, EGFR InsGY (D770delinsGY) transformed Ba/F3 cells (Homo sapiens, UniProt P00533, D770Y/INS769G).
T11 construct: expressed in transfected cells; host or cells: Ba/F3
In words: Proliferation inhibition assay, EGFR InsGY transformed Ba/F3 cells. Conditions: MTS assay, 72 hours. A digest of the protocol:
as §5

Experiment [14] deals with T12, HER2 InsYVMA (A775_G776insYVMA) transformed Ba/F3 cells (Homo sapiens, UniProt P04626, INS775YVMA).
T12 construct: expressed in transfected cells; host or cells: Ba/F3
In words: Proliferation inhibition assay, HER2 InsYVMA transformed Ba/F3 cells. Conditions: MTS assay, 72 hours, Table 9 key. A digest of the protocol:
as §5

Experiment [15] addresses T13, HER2 InsGSP (P780_Y781insGSP) transformed Ba/F3 cells (Homo sapiens, UniProt P04626, INS780GSP).
T13 construct: expressed in transfected cells; host or cells: Ba/F3
In words: Proliferation inhibition assay, HER2 InsGSP transformed Ba/F3 cells. Conditions: MTS assay, 72 hours, Table 9 key. Here is the method:
as §2, §3, §4

In experiment [16] the target is T14, HER2 InsVC (G776delinsVC) transformed Ba/F3 cells (Homo sapiens, UniProt P04626, G776C/INS775V).
T14 construct: expressed in transfected cells; host or cells: Ba/F3
As to the kind of experiment: Proliferation inhibition assay, HER2 InsVC transformed Ba/F3 cells. The settings on record: MTS assay, 72 hours, Table 9 key. Here is the method: as §2, §3, §4

The target in experiment [17] is mutant EGFR T790M/exon19del transformed Ba/F3 cells (Homo sapiens, UniProt P00533, T790M, cells depend on it, form not given). In words: Proliferation inhibition assay, EGFR T790M/exon19del transformed Ba/F3 cells.
For experiment [18], the target named is T15, EGFR InsSVD (D770_N771insSVD) transformed Ba/F3 cells (Homo sapiens, UniProt P00533, INS770SVD).
T15 construct: expressed in transfected cells; host or cells: Ba/F3
As to the kind of experiment: Proliferation inhibition assay, EGFR InsSVD transformed Ba/F3 cells. Conditions: MTS assay, 72 hours. Put shortly: as §5

The target in experiment [19] is T16, EGFR InsNPG (D770_N771insNPG) transformed Ba/F3 cells (Homo sapiens, UniProt P00533, INS770NPG).
T16 construct: expressed in transfected cells; host or cells: Ba/F3
In words: Proliferation inhibition assay, EGFR InsNPG transformed Ba/F3 cells. The settings on record: MTS assay, 72 hours. Here is the method:
as §2, §3, §4

The structures appear in SMILES notation.

Consider 3 compounds from patent US11945816B2, “Inhibitors of EGFR and/or HER2 and methods of use” (Dana-Farber Cancer Institute, Inc., priority 2017, dated 2024).

T13 sequence (P04626 with tags, fused parts or gaps INS780GSP): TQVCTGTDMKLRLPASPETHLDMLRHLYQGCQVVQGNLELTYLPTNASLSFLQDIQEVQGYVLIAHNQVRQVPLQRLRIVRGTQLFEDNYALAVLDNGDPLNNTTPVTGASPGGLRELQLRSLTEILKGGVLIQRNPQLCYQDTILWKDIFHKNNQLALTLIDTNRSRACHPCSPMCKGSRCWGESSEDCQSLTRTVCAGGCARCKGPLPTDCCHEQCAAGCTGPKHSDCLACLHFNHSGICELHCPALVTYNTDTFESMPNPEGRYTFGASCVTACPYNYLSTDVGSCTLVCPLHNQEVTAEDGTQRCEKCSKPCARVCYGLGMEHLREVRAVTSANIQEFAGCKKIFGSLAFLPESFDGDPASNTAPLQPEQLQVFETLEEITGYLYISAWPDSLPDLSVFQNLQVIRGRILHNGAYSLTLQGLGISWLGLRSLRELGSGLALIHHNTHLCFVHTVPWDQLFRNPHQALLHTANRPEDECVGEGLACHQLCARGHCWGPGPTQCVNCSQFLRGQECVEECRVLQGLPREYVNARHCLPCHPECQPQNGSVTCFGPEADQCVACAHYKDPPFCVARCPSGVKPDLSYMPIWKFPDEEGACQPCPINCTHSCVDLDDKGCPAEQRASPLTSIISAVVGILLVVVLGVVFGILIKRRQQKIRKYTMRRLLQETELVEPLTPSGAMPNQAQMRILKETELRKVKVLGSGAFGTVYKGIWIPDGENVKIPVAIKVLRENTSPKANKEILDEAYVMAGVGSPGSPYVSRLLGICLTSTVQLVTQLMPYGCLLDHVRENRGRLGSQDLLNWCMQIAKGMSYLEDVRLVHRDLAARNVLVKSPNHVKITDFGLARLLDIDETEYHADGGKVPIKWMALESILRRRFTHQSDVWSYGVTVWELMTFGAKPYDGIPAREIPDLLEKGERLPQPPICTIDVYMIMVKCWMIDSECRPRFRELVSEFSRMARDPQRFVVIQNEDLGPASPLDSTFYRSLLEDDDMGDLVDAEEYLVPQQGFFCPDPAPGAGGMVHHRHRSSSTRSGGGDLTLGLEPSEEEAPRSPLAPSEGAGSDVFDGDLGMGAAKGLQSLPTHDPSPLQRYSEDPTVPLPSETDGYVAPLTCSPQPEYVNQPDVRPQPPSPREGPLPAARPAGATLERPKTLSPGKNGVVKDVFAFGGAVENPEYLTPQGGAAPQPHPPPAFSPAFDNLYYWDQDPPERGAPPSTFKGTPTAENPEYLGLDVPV
T1 sequence (P04626 23-1255): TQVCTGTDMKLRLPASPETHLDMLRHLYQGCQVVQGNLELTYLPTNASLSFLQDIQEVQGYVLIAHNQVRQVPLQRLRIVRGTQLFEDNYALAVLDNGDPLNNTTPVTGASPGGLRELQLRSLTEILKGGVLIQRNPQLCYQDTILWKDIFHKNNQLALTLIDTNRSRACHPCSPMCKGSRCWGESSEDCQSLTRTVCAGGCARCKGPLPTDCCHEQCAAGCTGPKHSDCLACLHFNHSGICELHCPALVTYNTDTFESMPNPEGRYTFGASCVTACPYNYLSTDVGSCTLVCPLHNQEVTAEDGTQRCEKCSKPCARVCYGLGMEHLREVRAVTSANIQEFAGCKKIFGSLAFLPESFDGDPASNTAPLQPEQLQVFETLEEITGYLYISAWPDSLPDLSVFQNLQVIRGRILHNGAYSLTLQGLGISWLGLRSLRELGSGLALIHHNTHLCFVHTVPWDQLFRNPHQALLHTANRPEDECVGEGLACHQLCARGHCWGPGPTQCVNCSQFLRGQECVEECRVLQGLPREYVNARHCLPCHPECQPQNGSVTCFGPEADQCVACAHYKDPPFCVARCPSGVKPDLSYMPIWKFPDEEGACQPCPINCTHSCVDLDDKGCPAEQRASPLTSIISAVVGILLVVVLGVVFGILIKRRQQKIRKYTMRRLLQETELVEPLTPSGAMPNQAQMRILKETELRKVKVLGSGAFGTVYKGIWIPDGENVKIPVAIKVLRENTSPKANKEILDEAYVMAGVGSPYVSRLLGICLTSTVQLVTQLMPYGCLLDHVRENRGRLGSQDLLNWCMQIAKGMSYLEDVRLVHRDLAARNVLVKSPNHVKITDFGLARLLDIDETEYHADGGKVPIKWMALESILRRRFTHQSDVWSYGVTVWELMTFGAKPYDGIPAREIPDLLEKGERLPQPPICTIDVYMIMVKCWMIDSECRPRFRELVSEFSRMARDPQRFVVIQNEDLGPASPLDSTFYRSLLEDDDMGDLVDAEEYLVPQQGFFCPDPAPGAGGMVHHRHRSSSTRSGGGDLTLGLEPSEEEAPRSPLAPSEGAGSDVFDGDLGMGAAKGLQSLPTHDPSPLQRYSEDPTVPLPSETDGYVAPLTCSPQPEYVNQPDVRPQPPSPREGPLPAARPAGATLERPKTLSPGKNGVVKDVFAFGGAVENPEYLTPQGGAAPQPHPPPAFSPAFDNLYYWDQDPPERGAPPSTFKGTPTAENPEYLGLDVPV
T12 sequence (P04626 with tags, fused parts or gaps INS775YVMA): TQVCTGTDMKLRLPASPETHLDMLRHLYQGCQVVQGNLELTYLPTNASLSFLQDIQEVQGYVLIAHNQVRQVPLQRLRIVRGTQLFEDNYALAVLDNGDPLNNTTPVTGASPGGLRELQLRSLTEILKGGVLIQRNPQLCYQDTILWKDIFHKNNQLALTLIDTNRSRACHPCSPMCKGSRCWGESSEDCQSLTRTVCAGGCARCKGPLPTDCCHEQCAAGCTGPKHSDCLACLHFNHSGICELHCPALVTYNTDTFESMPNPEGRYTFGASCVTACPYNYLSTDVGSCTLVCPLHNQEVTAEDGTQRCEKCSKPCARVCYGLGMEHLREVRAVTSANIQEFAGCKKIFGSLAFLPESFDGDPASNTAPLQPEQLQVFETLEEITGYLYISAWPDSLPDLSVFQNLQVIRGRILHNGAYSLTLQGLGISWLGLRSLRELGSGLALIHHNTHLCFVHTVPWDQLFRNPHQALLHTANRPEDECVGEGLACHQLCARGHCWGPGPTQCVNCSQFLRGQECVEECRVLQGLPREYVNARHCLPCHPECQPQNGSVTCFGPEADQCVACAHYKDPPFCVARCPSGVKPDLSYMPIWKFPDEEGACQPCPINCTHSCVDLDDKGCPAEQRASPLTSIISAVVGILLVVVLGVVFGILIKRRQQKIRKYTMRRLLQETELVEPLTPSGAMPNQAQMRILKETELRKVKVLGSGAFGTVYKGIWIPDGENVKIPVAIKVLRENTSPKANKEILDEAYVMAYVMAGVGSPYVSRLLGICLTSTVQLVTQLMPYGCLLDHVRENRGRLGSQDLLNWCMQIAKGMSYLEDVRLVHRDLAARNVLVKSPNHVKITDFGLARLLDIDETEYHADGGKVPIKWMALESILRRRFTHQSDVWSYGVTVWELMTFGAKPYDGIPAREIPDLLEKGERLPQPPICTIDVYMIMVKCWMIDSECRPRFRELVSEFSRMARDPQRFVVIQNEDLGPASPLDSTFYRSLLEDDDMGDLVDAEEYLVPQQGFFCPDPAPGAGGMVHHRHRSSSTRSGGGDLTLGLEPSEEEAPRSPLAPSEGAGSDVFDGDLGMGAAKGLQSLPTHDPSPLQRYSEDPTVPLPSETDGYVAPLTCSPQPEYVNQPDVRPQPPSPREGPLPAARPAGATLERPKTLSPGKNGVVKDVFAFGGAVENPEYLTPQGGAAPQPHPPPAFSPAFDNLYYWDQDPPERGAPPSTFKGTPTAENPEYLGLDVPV
T6 sequence (P04626 with tags, fused parts or gaps INS773WL/M774V): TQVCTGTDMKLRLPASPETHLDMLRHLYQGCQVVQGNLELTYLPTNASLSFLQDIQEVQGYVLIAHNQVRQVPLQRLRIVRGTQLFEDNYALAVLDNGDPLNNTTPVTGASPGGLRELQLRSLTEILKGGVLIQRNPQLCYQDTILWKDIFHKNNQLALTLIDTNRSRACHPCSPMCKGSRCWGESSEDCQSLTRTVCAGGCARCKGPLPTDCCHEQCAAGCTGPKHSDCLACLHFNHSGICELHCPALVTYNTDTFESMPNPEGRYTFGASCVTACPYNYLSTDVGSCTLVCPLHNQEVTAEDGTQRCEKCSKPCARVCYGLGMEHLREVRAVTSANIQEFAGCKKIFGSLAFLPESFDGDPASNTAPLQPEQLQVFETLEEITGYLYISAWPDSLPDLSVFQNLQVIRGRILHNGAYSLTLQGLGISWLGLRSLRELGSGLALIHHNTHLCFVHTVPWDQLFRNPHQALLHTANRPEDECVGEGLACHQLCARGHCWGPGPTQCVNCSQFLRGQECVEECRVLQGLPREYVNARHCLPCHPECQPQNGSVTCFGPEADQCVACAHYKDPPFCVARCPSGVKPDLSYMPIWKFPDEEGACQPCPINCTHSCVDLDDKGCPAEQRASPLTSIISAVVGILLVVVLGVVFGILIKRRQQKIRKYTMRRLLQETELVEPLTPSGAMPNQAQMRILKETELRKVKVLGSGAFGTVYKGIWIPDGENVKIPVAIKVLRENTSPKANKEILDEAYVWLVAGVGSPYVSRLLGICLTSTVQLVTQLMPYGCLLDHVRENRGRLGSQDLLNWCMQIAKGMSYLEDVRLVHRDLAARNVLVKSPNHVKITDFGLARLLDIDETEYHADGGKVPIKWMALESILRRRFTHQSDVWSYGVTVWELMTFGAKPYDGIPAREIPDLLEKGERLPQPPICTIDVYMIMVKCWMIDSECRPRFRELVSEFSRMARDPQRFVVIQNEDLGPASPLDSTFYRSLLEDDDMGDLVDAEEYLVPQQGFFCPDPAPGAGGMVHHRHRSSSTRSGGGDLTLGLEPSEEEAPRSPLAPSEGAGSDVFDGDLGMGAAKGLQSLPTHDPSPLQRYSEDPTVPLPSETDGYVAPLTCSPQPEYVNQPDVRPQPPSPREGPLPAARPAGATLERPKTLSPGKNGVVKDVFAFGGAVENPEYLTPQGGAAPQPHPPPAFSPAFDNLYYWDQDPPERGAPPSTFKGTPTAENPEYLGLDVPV

Take `C=CC(=O)Nc1cccc(-n2c(=O)c(Oc3ccc(F)cc3F)cc3cnc(Nc4cnn(C)c4)nc32)c1` [Compound 2]: the EC50 in experiment [1] is below 100 nM; in experiment [2], below 100 nM; in experiment [3], below 200 nM; in experiment [4], below 200 nM; in experiment [8], below 100 nM; in experiment [9] it was below 200 nM. The 50% effective concentration (EC50) in experiment [10] was below 200 nM; in experiment [11] it was below 100 nM; in experiment [12], below 100 nM; in experiment [13] it was below 200 nM; in [14] it was below 100 nM; in experiment [15] it was below 100 nM. The concentration giving a half-maximal response (EC50) in [16] is below 100 nM; in [17], below 100 nM; in experiment [18] it was below 200 nM; in [19] it was below 200 nM. The “EGFR phosphorylation (Western blot, FIG. 1)” value in experiment [5], in [6] and in [7] was “decrease in EGFR phosphorylation” in each case.
With `C=CC(=O)Nc1cccc(-n2c(=O)c(Oc3ccc(F)cc3F)cc3cnc(Nc4cnn(C5CCN(C)CC5)c4)nc32)c1` [Compound 3], the concentration for a half-maximal effect (EC50) in experiment [1] was below 100 nM; in [3], below 200 nM; in experiment [4], below 200 nM; in [8], 100 to 250 nM; in experiment [9], 200 to 600 nM; in experiment [10] it was 200 to 600 nM. The EC50 in experiment [13] is below 200 nM; in experiment [14] it was below 100 nM; in experiment [15], below 100 nM; in [16], 100 to 250 nM; in [18], below 200 nM; in experiment [19] it was below 200 nM.
Regarding `C=CC(=O)N1CCC[C@@H](n2c(=O)c(Oc3ccc(F)cc3F)cc3cnc(Nc4cnn(C5CCN(C)CC5)c4)nc32)C1` [Compound 17], the concentration for a half-maximal effect (EC50) in experiment [1] is below 100 nM; in experiment [3], below 200 nM; in [4] it was below 200 nM; in experiment [8], 250 to 500 nM; in [9], 600 to 1000 nM; in experiment [10] it was 200 to 600 nM. Moreover, the EC50 in experiment [13] is below 200 nM; in [14] it was below 100 nM; in experiment [15], below 100 nM; in [16], below 100 nM; in [18] it was below 200 nM; in experiment [19] it was below 200 nM.

Broadly, the EC50 is the concentration needed to bring the measured effect to its halfway point.
